Results as given in article PMC10229078, “In vitro effects of lapachol and β-lapachone against Leishmania amazonensis” (Brazilian Journal of Medical and Biological Research, 2023).
Converted amounts (≈) assume the structure as drawn.

What was measured:
[1] = tested on: Leishmania amazonensis promastigotes; experiment: Viability assay of promastigotes, XTT colorimetric method (LD50); type: cell-based, Leishmania amazonensis (MHOM/BR/1977/LTB0016); conditions: 25°C
Experimental: The viability of L. amazonensis (MHOM/BR/1977/LTB0016) promastigotes was evaluated using the XTT colorimetric method, which consists in the XTT salt degradation by the mitochondria forming formazan crystals. Promastigote forms (2×10^7 parasites/mL) from a culture in logarithmic growth phase were incubated with lapachol and β-lapachone diluted in 199 culture medium. The drugs were diluted in series, in a ratio of two, starting from 1/2, on a 96-well cell culture plate (TPP™ test plate, Switzerland). The compounds were tested at concentrations from 204.4 to 0.40 µg/mL (lapachol) and 157.5 to 0.31 µg/mL (β-lapachone). After 24, 48, and 72 h of incubation at 25°C, 100 μL of the XTT solution (500 μg/mL) activated with PMS (50 μg/mL) were added to each well and incubated for 4 h at 37°C. The result was measured by absorbance, determined by spectrophotometry (450/650 nm filter, VersaMax™ ELISA microplate reader, USA). The lethal dose (LD50) was defined as the concentrations of the compounds that reduced survival of L. amazonensis by 50% compared to untreated parasites in culture medium. AmB (1.96 to 0.25 µg/mL) was used as positive control of leishmanicidal activity. The therapeutic selectivity index (TSI CC50/LD50) was calculated by the ratio of toxicity to macrophage vs toxicity to parasites after 24 h incubation ([28]). All assays were performed in triplicate and repeated at least three times.

[2] = tested on: Leishmania amazonensis promastigotes; experiment: Promastigote growth inhibition, counting in Neubauer chamber (IC50); type: cell-based, Leishmania amazonensis (MHOM/BR/1977/LTB0016); conditions: Leishmania amazonensis; 24 h incubation, growth inhibition by counting
Experimental: Leishmania growth was evaluated after 24 h of incubation at 25°C with the compounds under the same conditions as previously mentioned. Then, 10 µL of the content of each well was added to a 990 µL (1/100) of formalin solution (2%), and the parasites were counted in a Neubauer chamber. The inhibitory concentration (IC50) of promastigotes was calculated by comparing with untreated promastigotes in culture medium. The results were evaluated by linear regression of the inhibition percentage. The selectivity index (SI CC50/IC50) was calculated by the ratio of toxicity concentration to macrophage vs inhibitory concentration to the parasite growth after 24 h incubation ([27]). All assays were performed in triplicate and repeated at least three times.

[3] = tested on: Leishmania amazonensis promastigotes; experiment: Change in cell volume and morphology of the parasites (flow cytometry FSC-H/SSC-H, SEM); type: cell-based; conditions: 24 h; lapachol 76.62 µg/mL, β-lapachone 1.63 µg/mL, H2O2 2 mM; untreated 93.14%
Experimental: Promastigote forms (2×10^7 cells) of L. amazonensis untreated (negative control) or treated with 76.62 µg/mL of lapachol and 1.63 µg/mL of β-lapachone were analyzed to observe changes in cell morphology of the parasites induced by the treatment after 24 h of incubation. […] Subsequently, the parasites were analyzed using a BD FacsCalibur flow cytometer (Becton Dickinson, USA) and CellQuest Pro software (Joseph Trotter, Scripps Research Institute, USA), and 10,000 events were acquired. Dot plots were generated, the forward scatter (FSC-H) parameter was analyzed as presenting a correlation with the cell volume.
Scanning electron microscopy (SEM) also was performed to analyze morphological changes in cell surface topography. After 24 h of treatment, the parasites were centrifuged at 576 g for 10 min, and the samples were fixed in 2.5% glutaraldehyde and 0.1 M sodium cacodylate buffer. Poly-L-lysine was used to promote the adhesion of fixed parasites on coverslips. Promastigotes were dehydrated with increasing ethanol concentrations (30-100%), submitted to critical point drying, and metalized with gold for visualization on a Shimadzu 55-550 (Japan) microscope.

[4] = tested on: Leishmania amazonensis promastigotes; experiment: Mitochondria membrane potential (ΔΨm), Rh123 flow cytometry; type: cell-based; conditions: for Reduction in ΔΨm: lapachol 76.62 µg/mL, β-lapachone 1.63 µg/mL, H2O2 2 mM; for Variation Index (VI) of Rh123 fluorescence, (MT−MC)/MC: lapachol 76.62 μg/mL, β-lapachone 1.63 μg/mL, PC 2 mM
Experimental: The ΔΨm was determined using on BD FacsCalibur™ flow cytometer and CellQuest Pro software, with a total of 10.000 events acquired, using a mitochondrial-specific green-fluorescent dye Rh123 ([31]). Briefly, L. amazonensis (2×10^7 parasites/mL) were incubated with lapachol (76.62 µg/mL) and β-lapachone (1.63 µg/mL) for 1, 4, and 24 h at 25°C. After washed with PBS, the parasites were incubated with 5 μg/mL Rh123 for 15 min. After the incubation time, the cells were washed and suspended in PBS for additional incubation of 30 min for analysis. The percentage of fluorescence of Rh123, was determined by the (MT/MC)*100 equation, with MT representing the median fluorescence of the treated parasites and the MC the median fluorescence of negative controls. Alteration in ΔΨm was quantified using an index of variation (IV) obtained by the equation IV = (MT - MC)/MC, where negative IV values correspond to depolarization of the mitochondrial membrane. H2O2 (2 mM) was used as a positive control ([32]).

Row | Compound | Promastigotes LD50 ([1]; 24 h incubation) | Promastigotes LD50 ([1]; 48 h incubation) | Promastigotes LD50 ([1]; 72 h incubation) | IC50 [2] | Percentage population of the lower left quadrant gate (FSC-H/SSC-H, cell volume) [3] | Reduction in ΔΨm ([4]; 1 h) | Variation Index (VI) of Rh123 fluorescence, (MT−MC)/MC ([4]; 1 h) | Variation Index (VI) of Rh123 fluorescence, (MT−MC)/MC ([4]; 4 h) | Reduction in ΔΨm ([4]; 24 h) | Variation Index (VI) of Rh123 fluorescence, (MT−MC)/MC ([4]; 24 h)
1 | C[C@@H]1[C@H](O)[C@@H](C)/C=C/C=C/C=C/C=C/C=C/C=C/C=C/[C@H](O[C@@H]2O[C@H](C)[C@@H](O)[C@H](N)[C@@H]2O)C[C@@H]2O[C@](O)(C[C@@H](O)C[C@@H](O)[C@H](O)CC[C@@H](O)C[C@@H](O)CC(=O)O[C@H]1C)C[C@H](O)[C@H]2C(=O)O [AmB, Amphotericin B, reference compound] | 0.97 ± 0.09 µg/mL | 1.65 ± 0.02 µg/mL | 0.80 ± 0.03 µg/mL | 0.632 ± 0.12 µg/mL (≈ 0.684 µM) |  |  |  |  |  | 
2 | OO [H2O2, reference compound] |  |  |  |  | 49.51% | 97% | -0.97 | -0.98 | 98% | -0.98
